{"source": "paper PMC7822819", "about": "“Discovery of a new class of integrin antibodies for fibrosis” (Scientific Reports, 2021)", "test_in_all_cases": "AlphaLISA integrin-ligand binding assay", "format_in_all_cases": "biochemical", "key": {"human αvβ1": {"molecular_target": "human αvβ1 (Homo sapiens, UniProt P05556+P06756)", "sequence (P06756 31-992)": "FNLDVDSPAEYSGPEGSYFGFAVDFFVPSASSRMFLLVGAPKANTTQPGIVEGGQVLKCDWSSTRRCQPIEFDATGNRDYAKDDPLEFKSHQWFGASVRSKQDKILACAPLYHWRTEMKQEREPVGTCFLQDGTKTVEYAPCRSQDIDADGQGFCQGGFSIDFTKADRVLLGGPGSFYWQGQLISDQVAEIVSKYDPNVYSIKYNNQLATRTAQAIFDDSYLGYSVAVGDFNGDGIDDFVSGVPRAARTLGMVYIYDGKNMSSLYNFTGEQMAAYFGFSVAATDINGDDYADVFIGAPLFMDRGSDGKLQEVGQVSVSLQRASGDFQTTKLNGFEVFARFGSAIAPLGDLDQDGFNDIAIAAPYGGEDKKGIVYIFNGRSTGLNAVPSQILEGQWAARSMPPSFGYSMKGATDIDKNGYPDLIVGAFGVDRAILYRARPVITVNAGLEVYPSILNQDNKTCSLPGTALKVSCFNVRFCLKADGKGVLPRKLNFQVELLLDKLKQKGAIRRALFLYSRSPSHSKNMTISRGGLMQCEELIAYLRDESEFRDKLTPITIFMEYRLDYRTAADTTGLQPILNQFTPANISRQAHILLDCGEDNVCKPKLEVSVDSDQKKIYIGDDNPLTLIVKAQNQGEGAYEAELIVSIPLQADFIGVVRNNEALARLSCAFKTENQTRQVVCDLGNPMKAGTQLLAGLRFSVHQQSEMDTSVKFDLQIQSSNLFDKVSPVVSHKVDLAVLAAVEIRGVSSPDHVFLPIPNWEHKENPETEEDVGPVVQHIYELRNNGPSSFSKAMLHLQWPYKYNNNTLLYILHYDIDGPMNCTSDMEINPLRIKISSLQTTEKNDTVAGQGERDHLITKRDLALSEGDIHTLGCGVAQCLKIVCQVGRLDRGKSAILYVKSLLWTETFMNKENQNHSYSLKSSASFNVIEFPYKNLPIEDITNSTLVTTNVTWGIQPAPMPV", "sequence (P05556 21-728)": "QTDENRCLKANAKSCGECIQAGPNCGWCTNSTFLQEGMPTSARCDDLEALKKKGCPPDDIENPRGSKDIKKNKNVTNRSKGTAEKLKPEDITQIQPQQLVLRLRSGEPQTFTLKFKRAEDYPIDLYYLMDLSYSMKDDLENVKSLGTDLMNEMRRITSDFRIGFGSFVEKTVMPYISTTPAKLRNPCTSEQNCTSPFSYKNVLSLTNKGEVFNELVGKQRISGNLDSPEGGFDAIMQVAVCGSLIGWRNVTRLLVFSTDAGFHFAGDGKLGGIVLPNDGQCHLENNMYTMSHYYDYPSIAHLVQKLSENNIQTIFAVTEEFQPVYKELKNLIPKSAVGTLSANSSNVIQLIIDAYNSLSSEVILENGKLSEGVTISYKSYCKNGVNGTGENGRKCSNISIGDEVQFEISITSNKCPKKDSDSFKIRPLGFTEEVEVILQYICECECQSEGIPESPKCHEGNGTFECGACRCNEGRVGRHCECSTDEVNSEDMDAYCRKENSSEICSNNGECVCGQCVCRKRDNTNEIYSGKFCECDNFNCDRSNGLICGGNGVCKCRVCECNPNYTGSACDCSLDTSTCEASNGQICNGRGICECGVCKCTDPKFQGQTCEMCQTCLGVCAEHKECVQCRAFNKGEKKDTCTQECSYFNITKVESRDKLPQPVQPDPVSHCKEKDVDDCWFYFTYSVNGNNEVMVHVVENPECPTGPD", "set-up": "hαV 1 992; hβ1 1 728; made in house; host or cells: Expi293", "experimental": "(§1) In the AlphaLISA integrin assays, we used a HEPES based buffer (25 mM HEPES pH 7.4, 137 mM NaCl, 1 mM MgCl2, 1 mM MnCl2, 2 mM CaCl2, 2.7 mM KCl, and 0.05% Tween-20). Optimal assay conditions were determined with a titration of the reagents for signal noise ratio (S/N), linear range, etc. For the respective integrins, we used the final concentrations described in Supplemental Table S3. Briefly, the testing antibody (8 μL) was added as a 4x (of Final testing concentration) solution in the HEPES buffer described previously into a 384w AlphaPlate (Perkin Elmer #6005350). Then the integrin and ligand were added sequentially as 8x (4 μL each). Plates were sealed and incubated at room temperature for 2 h. Then 4 × acceptor bead solution (8 μL) was added, and the plates were resealed and incubated at RT for 1 h. Finally, 4 × (8 μL) donor beads solution was added in a darkened room and incubated for 45 min at room temperature. Plates were read on the Envision (Perkin Elmer) in AlphaScreen mode within 3 h of donor bead addition.\n(§2) Supplemental Table S3. integrin AlphaLIS A assay reagents and conditions Human A l phal i sa Inte gri n A ssays: Fi nal Condi ti ons […]\n(§3) ( batch de pe nde nt) anti body A l phaLi sa A cce ptor havb1 1. 4 nM 1. 0 nMα - Fi brone cti n human Fi brone cti n n/a A cce ptor be ads/ Pe rki n 10. 0 ug/ m 10. 0 ug/ m […]\nhavb3 3. 0 nM 10. […]"}, "mouse α5β1": {"molecular_target": "T1, mouse α5β1 (Mus musculus, UniProt P09055+P11688)", "T1 construct": "mα5 1 999; m β1 1 728; made in house; host or cells: Expi293", "conditions": "Fig. 4B; read-out: IC50 Mouse integrin AlphaLISA assays: mα5β1", "experimental": "as §1, §2, §3\n(§4) havb3 3. 0 nM 10. 0 nMhuman V i trone cti n- GST α - GS T A cce p t o r ug/ m Stre ptavi di n Donor ug/ m tagge d n/a be ads/ Pe rki n 15. 0 l be ads/ Pe rki n El me r 15. 0 l […]\n(§5) havb6 0. 1 nM 0. 5 nM 3. […]\n(§6) Mouse A l phal i sa Inte gri n A ssays: Fi nal Condi ti ons […]\n(§7) m aV b 1 4. 3 nM 1. 0 nMmouse f i brone cti n A bcam α - Fi brone cti n ( Rabbi t […]\n(§8) 0 nM 5. […] 0nM be ads/ Pe rki n El me r […]\n(§9) m aV b 6 1. 4 nM 2. 5 nMmouse LA P- 6Hi s α - 6x HI S / P e rk i n El m e r ug/ m ug/ m m aV b 8 1. 0 nM 2. 5 nMChe mpartne rn/a( A L 128) 15 l 15 l"}, "mouse αvβ3": {"molecular_target": "T2, mouse αvβ3 (Mus musculus, UniProt O54890+P43406)", "T2 construct": "mαV 1 988; m β3 1 717; made in house; host or cells: Expi293", "conditions": "Fig. 4B; read-out: IC50 Mouse integrin AlphaLISA assays: mαvβ3", "experimental": "as §1, §2, §3, §4, §5, §6, §7, §8, §9"}, "human α5β1": {"molecular_target": "T3, human α5β1 (Homo sapiens, UniProt P05556+P08648)", "T3 construct": "hα5 1 995; hβ1 1 728; made in house; host or cells: Expi293", "T3 sequence (P08648 42-995)": "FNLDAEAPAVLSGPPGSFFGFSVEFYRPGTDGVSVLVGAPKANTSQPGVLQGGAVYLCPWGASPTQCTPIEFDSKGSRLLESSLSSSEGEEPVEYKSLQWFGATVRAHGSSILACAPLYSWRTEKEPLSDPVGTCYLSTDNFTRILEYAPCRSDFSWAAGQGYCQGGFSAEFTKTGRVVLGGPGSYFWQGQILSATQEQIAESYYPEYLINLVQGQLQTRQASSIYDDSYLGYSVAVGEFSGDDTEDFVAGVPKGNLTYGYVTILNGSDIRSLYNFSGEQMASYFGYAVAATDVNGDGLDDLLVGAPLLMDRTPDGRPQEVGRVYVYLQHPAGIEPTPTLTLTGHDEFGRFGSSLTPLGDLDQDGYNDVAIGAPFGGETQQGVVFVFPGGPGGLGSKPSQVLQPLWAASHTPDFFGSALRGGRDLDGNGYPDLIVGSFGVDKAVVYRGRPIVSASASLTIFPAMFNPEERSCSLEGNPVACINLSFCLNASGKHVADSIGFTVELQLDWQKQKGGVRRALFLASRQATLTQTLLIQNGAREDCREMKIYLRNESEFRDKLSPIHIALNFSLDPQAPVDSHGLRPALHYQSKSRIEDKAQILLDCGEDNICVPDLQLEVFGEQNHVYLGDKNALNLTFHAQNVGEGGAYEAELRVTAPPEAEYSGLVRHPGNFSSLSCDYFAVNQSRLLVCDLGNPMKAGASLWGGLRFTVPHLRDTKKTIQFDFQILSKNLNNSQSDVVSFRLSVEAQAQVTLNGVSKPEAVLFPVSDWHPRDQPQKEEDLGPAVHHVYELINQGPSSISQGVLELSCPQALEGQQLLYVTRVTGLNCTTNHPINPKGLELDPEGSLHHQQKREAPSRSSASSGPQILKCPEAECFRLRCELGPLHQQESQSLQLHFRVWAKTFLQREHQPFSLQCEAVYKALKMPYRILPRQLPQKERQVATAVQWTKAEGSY", "T3 sequence (P05556 21-728)": "as the sequence (P05556 21-728) above", "experimental": "as §1, §2, §3, §4, §5, §6, §7, §8, §9"}, "mouse αvβ8": {"molecular_target": "T4, mouse αvβ8 (Mus musculus, UniProt P43406+Q0VBD0)", "T4 construct": "mαV 1 988; m β8 1 679; made in house; host or cells: Expi293", "conditions": "Fig. 4B; read-out: IC50 Mouse integrin AlphaLISA assays: mαvβ8", "experimental": "as §1, §2, §3, §4, §5, §6, §7, §8, §9"}, "human αvβ5": {"molecular_target": "T5, human αvβ5 (Homo sapiens, UniProt P06756+P18084)", "T5 construct": "hαV 1 992; hβ5 1 719; made in house; host or cells: Expi293", "T5 sequence (P06756 31-992)": "as the sequence (P06756 31-992) above", "T5 sequence (P18084 24-719)": "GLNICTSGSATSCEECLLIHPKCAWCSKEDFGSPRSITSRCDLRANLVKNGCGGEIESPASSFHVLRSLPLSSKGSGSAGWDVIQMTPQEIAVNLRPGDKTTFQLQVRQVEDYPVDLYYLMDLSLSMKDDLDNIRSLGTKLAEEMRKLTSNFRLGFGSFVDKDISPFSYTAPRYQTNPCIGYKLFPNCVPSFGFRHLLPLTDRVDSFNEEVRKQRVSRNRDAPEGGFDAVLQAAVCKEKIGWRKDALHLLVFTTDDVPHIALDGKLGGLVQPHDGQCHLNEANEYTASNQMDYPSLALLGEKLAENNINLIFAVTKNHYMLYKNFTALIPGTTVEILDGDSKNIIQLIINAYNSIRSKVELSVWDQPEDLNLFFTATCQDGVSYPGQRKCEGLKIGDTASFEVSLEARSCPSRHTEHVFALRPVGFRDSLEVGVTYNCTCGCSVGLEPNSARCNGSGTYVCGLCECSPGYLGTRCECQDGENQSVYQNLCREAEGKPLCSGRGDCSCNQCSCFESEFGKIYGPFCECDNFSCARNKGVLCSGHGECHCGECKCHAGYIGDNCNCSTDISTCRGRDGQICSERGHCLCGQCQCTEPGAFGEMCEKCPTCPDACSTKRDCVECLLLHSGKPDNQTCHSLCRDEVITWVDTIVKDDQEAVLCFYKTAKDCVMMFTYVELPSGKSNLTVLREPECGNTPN", "experimental": "as §1, §2, §3, §4, §5, §6, §7, §8, §9"}, "human αvβ3": {"molecular_target": "T6, human αvβ3 (Homo sapiens, UniProt P05106+P06756)", "T6 construct": "hαV 1 992; hβ3 1 718; made in house; host or cells: Expi293", "T6 sequence (P06756 31-992)": "as the sequence (P06756 31-992) above", "T6 sequence (P05106 27-718)": "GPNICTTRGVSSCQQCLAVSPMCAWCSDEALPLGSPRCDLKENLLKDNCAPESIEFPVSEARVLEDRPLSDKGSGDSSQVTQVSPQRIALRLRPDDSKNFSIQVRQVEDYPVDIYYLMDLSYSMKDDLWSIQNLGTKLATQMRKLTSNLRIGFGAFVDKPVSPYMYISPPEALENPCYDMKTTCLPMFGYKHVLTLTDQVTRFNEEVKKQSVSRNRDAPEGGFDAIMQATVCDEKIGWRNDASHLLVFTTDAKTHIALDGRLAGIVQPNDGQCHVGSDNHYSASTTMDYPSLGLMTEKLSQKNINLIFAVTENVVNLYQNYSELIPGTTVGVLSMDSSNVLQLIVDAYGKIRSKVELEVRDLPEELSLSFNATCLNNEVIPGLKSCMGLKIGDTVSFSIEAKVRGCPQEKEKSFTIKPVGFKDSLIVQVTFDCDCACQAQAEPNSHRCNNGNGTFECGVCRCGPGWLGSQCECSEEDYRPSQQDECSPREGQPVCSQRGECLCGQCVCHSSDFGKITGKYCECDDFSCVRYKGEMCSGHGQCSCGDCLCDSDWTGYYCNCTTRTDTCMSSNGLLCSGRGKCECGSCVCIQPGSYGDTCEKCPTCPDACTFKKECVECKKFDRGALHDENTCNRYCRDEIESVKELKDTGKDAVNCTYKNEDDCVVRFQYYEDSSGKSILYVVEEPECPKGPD", "experimental": "as §1, §2, §3, §4, §5, §6, §7, §8, §9"}, "mouse αvβ5": {"molecular_target": "T7, mouse αvβ5 (Mus musculus, UniProt O70309+P43406)", "T7 construct": "mαV 1 988; m β5 1 719; made in house; host or cells: Expi293", "conditions": "Fig. 4B; read-out: IC50 Mouse integrin AlphaLISA assays: mαvβ5", "experimental": "as §1, §2, §3, §4, §5, §6, §7, §8, §9"}}, "note": "Where two headings read alike, the source gives them in different places."}
{"smiles": "COc1ccc(C(CC(=O)O)N2CCN(CCCc3ccc4c(n3)NCCC4)C2=O)cn1", "note": "(stereo not drawn) [MK-0429]", "values": [{"measurement": "IC50", "setting": "human αvβ1; Fig. 3D, assay optimisation, read-out: IC50 human αvβ1 AlphaLISA", "value": 0.46, "unit": "nM"}, {"measurement": "IC50", "setting": "human αvβ1; Fig. 4B, read-out: IC50 Human integrin AlphaLISA assays: hαvβ1", "value": 1, "unit": "nM"}, {"measurement": "IC50", "setting": "mouse α5β1", "value": 50.3, "unit": "nM"}, {"measurement": "IC50", "setting": "mouse αvβ3", "value": 0.9, "unit": "nM"}, {"measurement": "IC50", "setting": "human α5β1; Fig. 3D, assay optimisation, read-out: IC50 human α5β1 AlphaLISA", "value": 17.3, "unit": "nM"}, {"measurement": "IC50", "setting": "human α5β1; Fig. 4B, read-out: IC50 Human integrin AlphaLISA assays: hα5β1", "value": 26.5, "unit": "nM"}, {"measurement": "IC50", "setting": "mouse αvβ8", "value": 5.3, "unit": "nM"}, {"measurement": "IC50", "setting": "human αvβ5; Fig. 3D, assay optimisation, read-out: IC50 human αvβ5 AlphaLISA", "value": 9.9, "unit": "nM"}, {"measurement": "IC50", "setting": "human αvβ5; Fig. 4B, read-out: IC50 Human integrin AlphaLISA assays: hαvβ5", "value": 2.9, "unit": "nM"}, {"measurement": "IC50", "setting": "human αvβ3; Fig. 3D, assay optimisation, read-out: IC50 human αvβ3 AlphaLISA", "value": 0.15, "unit": "nM"}, {"measurement": "IC50", "setting": "human αvβ3; Fig. 4B, read-out: IC50 Human integrin AlphaLISA assays: hαvβ3", "value": 1.6, "unit": "nM"}, {"measurement": "IC50", "setting": "mouse αvβ5", "value": 48.3, "unit": "nM"}]}
